# In paper PMC2556205 (Journal of medicinal chemistry, 2008):
# Key:
# [1] = target: T1, purified recombinant rat FAAH (Rattus norvegicus, UniProt P97612); test: FAAH inhibition assay, 14C-oleamide hydrolysis, Dixon plot; format: biochemical; details: for FAAH inhibition (in words): pH 9 assay conditions
# T1 sequence (P97612 30-579 limits assumed): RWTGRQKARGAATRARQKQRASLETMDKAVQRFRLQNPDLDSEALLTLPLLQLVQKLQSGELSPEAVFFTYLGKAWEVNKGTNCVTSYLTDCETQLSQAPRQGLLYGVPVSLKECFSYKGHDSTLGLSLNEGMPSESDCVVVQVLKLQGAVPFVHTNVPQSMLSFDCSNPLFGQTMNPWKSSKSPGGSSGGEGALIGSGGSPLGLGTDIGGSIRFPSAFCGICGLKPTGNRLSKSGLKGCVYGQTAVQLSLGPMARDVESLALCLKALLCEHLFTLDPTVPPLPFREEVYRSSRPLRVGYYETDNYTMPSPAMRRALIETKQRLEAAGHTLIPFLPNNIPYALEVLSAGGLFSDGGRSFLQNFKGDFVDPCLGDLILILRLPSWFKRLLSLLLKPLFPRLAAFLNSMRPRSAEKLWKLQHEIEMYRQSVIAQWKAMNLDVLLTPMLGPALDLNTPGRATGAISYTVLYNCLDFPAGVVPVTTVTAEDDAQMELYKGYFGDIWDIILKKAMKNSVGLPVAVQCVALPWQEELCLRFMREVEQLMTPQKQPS
# [2] = Cerep assay profiling; cited from earlier work
# [3] = tested on: cannabinoid (CB1) receptor; details: cited from earlier work
# [4] = tested on: cannabinoid (CB2) receptor; details: cited from earlier work
# [5] = tested on: vanilloid (TRP) receptors; details: cited from earlier work
# P450 3A4 = details: cited from earlier work
# P450 2C9 = details: cited from earlier work
# P450 2D6 = details: cited from earlier work
# [6] = tested on: human ether-a-go-go related gene (hERG); details: cited from earlier work
# tail flick assay = details: 10–20 mg/kg, i.p.; cited from earlier work
# hot plate assay = details: 10–20 mg/kg, i.p.; cited from earlier work
# [7] = tested on: formalin test of noxious chemical pain; details: 1st and 2nd phase; 10–20 mg/kg, i.p.; cited from earlier work
# [8] = tested on: mild thermal injury (MTI) model of peripheral pain; details: 10–20 mg/kg, i.p.; cited from earlier work
# [9] = tested on: spinal nerve ligation (SNL) model of neuropathic pain; details: 10–20 mg/kg, i.p.; cited from earlier work
# FAAH knockout mice = details: cited from earlier work
# [10] = tested on: endogenous anandamide levels; details: cited from earlier work
# [11] = target: T1, purified recombinant rat FAAH; details: cited from earlier work
smiles,measurement,setting,value
O=C(CCCCCCc1ccccc1)c1cnc(-c2ccccn2)o1 [compound 6],loss of FAAH inhibition,"[1]; oxazole isomer, location of the oxazole nitrogen atom switched, compared with 2",> 4000 fold
O=C(CCCCCCc1ccccc1)c1ncc(-c2ccccn2)o1 [compound 2],offsite target activity,[2],lack significant offsite target activity
same,CB1 receptor binding,[3],does not bind
same,CB2 receptor binding,[4],does not bind
same,vanilloid (TRP) receptor binding,[5],does not bind
same,inhibition of P450 3A4,P450 3A4,does not significantly inhibit
same,inhibition of P450 2C9,P450 2C9,does not significantly inhibit
same,inhibition of P450 2D6,P450 2D6,does not significantly inhibit
same,inhibition of hERG,[6],does not significantly inhibit
same,"analgesic activity, tail flick assay",tail flick assay,analgesic activity
same,"analgesic activity, hot plate assay",hot plate assay,analgesic activity
same,"analgesic activity, formalin test",[7],analgesic activity
same,"analgesic activity, MTI model",[8],analgesic activity
same,"analgesic activity, SNL model",[9],analgesic activity
same,analgesia in FAAH knockout mice,FAAH knockout mice,ineffective at promoting analgesia
same,endogenous anandamide levels,[10],increases endogenous anandamide levels
same,mode of inhibition (Lineweaver–Burk analysis),[11],"reversible, competitive inhibition"
Cn1nnnc1C(=O)CCCCCCc1ccccc1 [19b],FAAH inhibition (in words),[1],displayed FAAH inhibition at levels consistent with this series
Cn1nnc(C(=O)CCCCCCc2ccccc2)n1 [19a],FAAH inhibition (in words),[1],displayed FAAH inhibition at levels consistent with this series
